Laboratory results reported in US8735575B2, “Phenoxazine derivatives and methods of use thereof” (Washington University, priority 2010, dated 2014).
Like-named read-outs stand apart in the source and are kept apart here. Blank lines part the entries; values can stand above or below the compound they belong to.

What was measured:
physchem = type: physicochemical
Method: (§1) The logPoct value is widely used in quantitative structure-activity relationship (QSAR) studies and rational drug design as a measure of molecular hydrophobicity. Hydrophobicity affects drug absorption, bioavailability, hydrophobic drug-receptor interactions, metabolism of molecules, and their toxicity. […] The mixture will be incubated with agitation for 30 min until ionic and non-ionic forms of test compound reach equilibrium. Two layers will be separated by centrifugation. Test compound's concentrations in octanol and water layers will be determined by UV/VIS spectrophotometry. The logPoct value will be calculated from log(concentration in n-octanol fraction/concentration in water fraction). Experiments will be repeated at least 3 times with triplicated samples.

CAA [1] = target: T1, CAA (Homo sapiens, UniProt P05067); assay: In situ binding assay on CAA in fixed brain sections of Tg2576 mice; design: species or system mouse (Tg2576); Binding affinity in situ, Bmax on CAA: unit not given here; settings: for Kd: read-out: Binding affinity in situ, KD (nM) on CAA
CAA [2] = target: T1, CAA; assay: Binding affinities for CAA on isolated vessels determined by fluorescent binding; settings: read-out: Binding affinity (nM) Ki
Method: The isolation of cerebral vessels for biochemical analysis will be performed as described (78, 98). […] After the cerebellum is removed, the brain will be homogenized in fivefold excess of vessel buffer. An equal volume of 26% dextran will be added, and the tissue will be centrifuged at 6200×g for 30 min at 4° C. The resulting vessels form a pellet, whereas the parenchymal “vessel-free” material forms a solid, compact disc at the top of the solution. The […] will be resuspended in vessel buffer and passed over a 40-μm nylon mesh to capture vessels. Vessel and parenchymal material will be lysed in 5 M guanidine, 50 mM Tris, pH 8, with protease inhibitor cocktail (Roche) for 3 hr.

[3] = system: cerebrovascular Aβ deposits; assay: In vivo live imaging of CAA amyloid deposits through closed cranial window; design: species or system mouse (Tg2576); settings: 16-month old Tg2576 mice, resorufin 2 μM
Method: FIG. 4 depicts in vivo live imaging of CAA amyloid deposits through closed cranial window. A,B. Closed cranial window was prepared on the right parietal bone of 16-month-old Tg2576 mice. Leptomeningeal arterioles (B) were subjected to live imaging using a fluorescent microscope. […] Scale bars: in C-E: 250 μm, in E: 100 μm.
as §1

[4] = cited from earlier work; for Lipophilicity Poct: data from the previous report (Klunk et al. 2002)
neuritic plaques = neuritic plaques (Homo sapiens, UniProt P05067); assay: In situ binding assay on neuritic plaques in fixed brain sections of Tg2576 mice; design: species or system mouse (Tg2576); settings: for Kd: in situ, Tg2576 brain sections, read-out: Binding affinity in situ, KD (nM) on Plaques
Text: (§2) Tg2576 mice are a well characterized mouse model of AD and CAA. They develop congophilic Aβ aggregates within neuritic plaques and leptomeningeal and cortical penetrating arteries at 11 months of age (Hsiao et al., 1996; Kawarabayashi et al., 2001; Fryer et al., 2005; Han et al., 2008).
(§3) The Ki values for CAA vs. neuritic plaques will be calculated utilizing the fluorescent amyloid-ligand methoxy-X34 and fluorescent microscopic method. […] Tissue sections (3 sections per reaction) will be then mounted and coverslipped. Photographs of methoxy-X34 binding images will be taken using a Nikon fluorescent microscope. The fluorescent intensity on cerebral amyloid deposits and neuritic plaques will be separately quantified using Image J software. Finally, Ki values will be calculated by plotting % bound vs. log concentrations of competitors followed by non-linear regression using the GraphPad Prism software. The maximum binding will be obtained from the methoxy-X34 intensity in the absence of competitors, while non-specific binding will be detected by the fluorescent intensity in brain tissues incubated without methoxy-X34.
(§4) Tg2576 mice or littermate controls at 15 months of age will be perfused with phosphatebuffered saline (PBS) for 5 min. Brains will be removed, fixed in 4% paraformaldehyde, and preserved in 30% glucose-PBS solution at 4° C. Brains will be coronally sectioned using a microtome and kept in cryoprotectant solution at −20° C. To label amyloid deposits, brain sections (3 sections per reaction) will be permeabilized with PBS containing 0.25% Triton X-100 for 20 min at room temperature, followed by incubation with 1 μM methoxy-X34 in the presence or absence of competitors at various concentrations (10-9-10-6 M). Sections will be subjected to fluorescent microscopy using a Nikon Eclipse C600 microscope. The fluorescent intensity of methoxy-X34 in vessels and neuritic plaques will be quantified using the ImageJ software. The binding affinity (Ki) will be calculated using the GraphPad Prism software.

CAA vs. neuritic plaques [5] = assay: Fluorescent co-staining of fixed brain sections of Tg2576 mice; design: species or system mouse (Tg2576); settings: aged Tg2576 mice, FIG. 1
Text: as §2

CAA vs. neuritic plaques [6] = assay: Staining of paraffin-embedded cortical sections of a human AD patient; settings: autopsied AD patient cortical sections, FIG. 3
Text: as §2

[7] = normal mice, cited from earlier work
CAA [8] = target: T1, CAA; assay: In situ binding assay on CAA in fixed brain sections of Tg2576 mice; design: species or system mouse (Tg2576)
Text: as §2, §3, §4

logP (physchem): 2.79
Compound: CC(=O)Oc1ccc2nc3ccc(=O)cc-3oc2c1 [Resorufin acetate]

binding to neuritic plaques (neuritic plaques; in situ binding assay at a concentration of 160 μM): negligible
logP (physchem): 0.387
Binding affinity in situ, Bmax on CAA (CAA [1]): 1523/ 885
Compound: O=c1ccc2nc3ccc(O)cc3oc-2c1 [Resorufin]
staining of CAA vs. neuritic plaques (CAA vs. neuritic plaques [5]): CAA>>>neuritic plaques
staining of 3D6-positive arterioles vs. neuritic plaques (CAA vs. neuritic plaques [6]): prominent in 3D6-positive cerebral arterioles but was rarely seen in 3D6-positive neuritic plaques

logP (physchem): 2.04
Binding affinity in situ, Bmax on CAA (CAA [1]): 527
Compound: O=c1ccc2nc3ccc(OCc4cn(CCF)nn4)cc3oc-2c1 [WC-5-3]

logP (physchem): 2.97
Binding affinity in situ, Bmax on CAA (CAA [1]): 699
Compound: COc1cccc(COc2ccc3nc4ccc(=O)cc-4oc3c2)c1 [WC-5-4]

logP (physchem): 1.91
Binding affinity in situ, Bmax on CAA (CAA [1]): 135
Compound: COc1ccc(COc2ccc3nc4ccc(=O)cc-4oc3c2)cc1 [WC-5-5]

logP (physchem): 3.42
Binding affinity in situ, Bmax on CAA (CAA [1]): 1304
Compound: O=c1ccc2nc3ccc(OCc4ccc(OCCF)cc4)cc3oc-2c1 [WC-5-7]

logP (physchem): 2.09
Compound: CC(=O)OCCOc1ccc2nc3ccc(=O)cc-3oc2c1 [WC-5-8]

logP (physchem): 2.2
Compound: O=c1ccc2nc3ccc(OCCBr)cc3oc-2c1 [WC-5-9]

Lipophilicity Poct (physchem; 30 min): >4.89??
Compound: O=c1ccc2nc3ccc(OCc4ccc(I)cc4)cc3oc-2c1 [WC-5-31]

The remaining lines, values behind:

Compound: O=c1ccc2nc3ccc(OCc4ccccc4)cc3oc-2c1 [Benzyloxy-resorufin]
logP (physchem): 2.21
Binding affinity in situ, Bmax on CAA (CAA [1]): 410

Compound: CCOc1ccc2nc3ccc(=O)cc-3oc2c1 [Ethoxy-resorufin]
logP (physchem): 2.35
Ki (CAA [2]): 262 nM
Binding affinity in situ, Bmax on CAA (CAA [1]): 107
Kd (CAA [1]): 247 nM

Compound: COc1cc(/C=C/c2ccc(O)cc2)ccc1/C=C/c1ccc(O)cc1 [Methoxy-X04, reference compound]
fluorescent labeling in live mice, topical application through cranial window [3]: present in both cerebral arteries and parenchymal neuritic plaques
Lipophilicity Poct [4]: ^b2.6

Compound: [11CH3]Oc1ccc(C=Cc2ccc(C=Cc3ccc(O)c(C(=O)O)c3)cc2)cc1C(=O)O [Methoxy-X34]
Lipophilicity Poct [4]: ^b0.19

Compound: COc1ccc2nc3ccc(=O)cc-3oc2c1 [Methoxy-resorufin]
logP (physchem): 1.95

Compound: CCCCCOc1ccc2nc3ccc(=O)cc-3oc2c1 [Pentoxy-resorufin]
logP (physchem): 2.34

Compound: C#COc1ccc2nc3ccc(=O)cc-3oc2c1 [WC-5-1]
Kd (neuritic plaques): > 4000 nM
Lipophilicity Poct (physchem): 2.407
Binding affinity in situ, Bmax on CAA (CAA [1]): 485
Kd (CAA [1]): 173 nM

Compound: O=c1ccc2nc3ccc(OCCF)cc3oc-2c1 [WC-5-2]
Kd (neuritic plaques): > 4000 nM
Lipophilicity Poct (physchem): 2.774
Binding affinity in situ, Bmax on CAA (CAA [1]): 869
Kd (CAA [1]): 235 nM

Compound: [11CH3]Nc1ccc(-c2nc3ccc(O)cc3s2)cc1 [[11C]PIB]
brain uptake at 2 min after injection ([7]; 2 min): 3.2 % ID/g
brain level after washout at 60 min ([7]; 60 min): 0.21 % ID/g
fraction in the brain cleared within 60 min ([7]; within 60 min): 93%

Compound: [11CH3]Oc1cc(C=Cc2ccc(O)cc2)ccc1C=Cc1ccc(O)cc1 [[11C]methoxy-X04]
logPoct ([4]; cited study (96)): 2.6

Compound: CCOc1ccc2nc3ccc(=O)cc-3oc2c1 [ethyl-resorufin]
binding affinity for CAA deposits, in words (CAA [8]): low nanomolar range
lipophilicity, in words (physchem): moderate lipophilicity

Compound: methoxyphenyl-resorufin
binding affinity for CAA deposits, in words (CAA [8]): low nanomolar range
lipophilicity, in words (physchem): moderate lipophilicity

Compound: phenyl-resorufin
binding affinity for CAA deposits, in words (CAA [8]): low nanomolar range
lipophilicity, in words (physchem): moderate lipophilicity
